Test results taken from patent US8343963B2, “Sulfamoyl-phenyl-ureido compounds and their use as medicament” (4SC AG, priority 2009, dated 2013).

System: multiresistant Dd2 strain of Plasmodium falciparum
Assay: Antiplasmodial activity against Dd2 strain of Plasmodium falciparum ([8-3H]hypoxanthine incorporation)
Format: cell-based
Conditions: 66 h, P. falciparum Dd2, 48 h + 18 h with [8-3H]hypoxanthine, 50% parasite growth inhibition, read-out: Antiplasmodia activity (IC50 class)
Procedure: For the determination of the antiplasmodial activity of the compounds described above, the multiresistant Dd2 strain of Plasmodium falciparum was used. The incorporation of [8-^3H]hypoxanthine into the parasitic nucleic acids was measured. The plasmodia were incubated at 0.3% parasitaemia and an erythrocyte haematocrit of 2.5% in the presence of different concentrations of the compounds in a final volume of 200 μl. The medium employed was RPMI 1640 which contained 10% of heat-treated human serum and 3 mg/l of gentamycin. In the incubations, the concentrations of the compounds varied from 0.001 to 100 μM. After 48 h, each batch was treated with 50 μl of [8-^3H]hypoxanthine (1 mCi/ml) and incubated for a further 18 h. The cells were filtered off, washed and suspended in 20 μl of scintillation fluid. The radioactive hypoxanthine absorbed by the parasites was then quantified using a scintillation counter. The results were presented graphically and the IC50 value was determined using a fitting function. The value IC50, the ‘inhibition constant’, indicates the value in μMol/l at which 50% parasite growth inhibition occurs (R. E. Desjardins, et al., Antimicrobiol. Agent Chemother. 16, pp. 710-718, 1979; J. D. Chulay, et al., Exp. Parasitol. 55, pp. 138-146, 1983).

Row | SMILES | IC50
1 | N=C(c1cccc(NC(=O)Nc2ccc(S(=O)(=O)NCc3ccc(S(N)(=O)=O)cc3)cc2)c1)N1CCN(CCO)CC1 [Compound 28, 4-(3-(3-((4-(2-hydroxyethyl)piperazin-1-yl)(imino)methyl)phenyl)ureido)-N-(4-sulfamoylbenzyl)benzenesulfonamide] | 20 to 200 nM
2 | N=C(c1cccc(NC(=O)Nc2ccc(S(=O)(=O)c3ccc(Br)cc3)cc2)c1)N1CCSCC1 [Compound 14, 1-(4-(4-bromophenylsulfonyl)phenyl)-3-(3-(imino(thiomorpholino)methyl)phenyl)urea] | 20 to 200 nM
3 | COCCN(CCOC)C(=N)c1cccc(NC(=O)Nc2ccc(S(=O)(=O)c3ccc(Br)cc3)cc2)c1 [Compound 13, 3-(3-(4-(4-bromophenylsulfonyl)phenyl)ureido)-N,N-bis(2-methoxyethyl)benzimidamide] | ≥ 1000 nM
4 | N=C(c1cccc(NC(=O)Nc2ccc(S(N)(=O)=O)cc2)c1)N1CCC(O)CC1 [Compound 2, 4-(3-(3-((4-hydroxypiperidin-1-yl)(imino)methyl)phenyl)ureido)benzenesulfonamide] | ≥ 1000 nM
5 | N=C(c1cccc(NC(=O)Nc2ccc(S(=O)(=O)NCc3ccc(S(N)(=O)=O)cc3)cc2)c1)N1CCN(CC2OCCO2)CC1 [Compound 67, 4-(3-(3-((4-((1,3-dioxolan-2-yl)methyl)piperazin-1-yl)(imino)methyl)phenyl)ureido)-N-(4-sulfamoylbenzyl)benzene sulfonamide] | 20 to 200 nM
6 | N=C(c1cccc(NC(=O)Nc2ccc(S(=O)(=O)NCc3ccc(S(N)(=O)=O)cc3)cc2)c1)N1CCSCC1 [Compound 31, 4-(3-(3-(imino(thiomorpholino)methyl)phenyl)ureido)-N-(4-sulfamoylbenzyl)benzenesulfonamide] | 210 to 990 nM
7 | N=C(c1cccc(NC(=O)Nc2ccc(S(=O)(=O)NCc3ccc(S(N)(=O)=O)cc3)cc2)c1)N1CCC(O)CC1 [Compound 48, 4-(3-(3-((4-hydroxypiperidin-1-yl)(imino)methyl)phenyl)ureido)-N-(4-sulfamoylbenzyl)benzenesulfonamide] | 20 to 200 nM
8 | CC(=O)N1CCN(C(=N)c2cccc(NC(=O)Nc3ccc(S(=O)(=O)NCc4ccc(S(N)(=O)=O)cc4)cc3)c2)CC1 [Compound 57, 4-(3-(3-((4-acetylpiperazin-1-yl)(imino)methyl)phenyl)ureido)-N-(4-sulfamoylbenzyl)benzenesulfonamide] | 20 to 200 nM
9 | CCOC(=O)N1CCN(C(=N)c2cccc(NC(=O)Nc3ccc(S(=O)(=O)NCc4ccc(S(N)(=O)=O)cc4)cc3)c2)CC1 [Compound 61, ethyl 4-(imino(3-(3-(4-(N-(4-sulfamoylbenzyl)sulfamoyl)phenyl)ureido)phenyl)methyl)piperazine-1-carboxylate] | < 20 nM
10 | N=C(c1cccc(NC(=O)Nc2ccc(S(=O)(=O)NCc3ccc(S(N)(=O)=O)cc3)cc2)c1)N1CCC(CO)CC1 [Compound 29, 4-(3-(3-((4-(hydroxymethyl)piperidin-1-yl)(imino)methyl)phenyl)ureido)-N-(4-sulfamoylbenzyl)benzenesulfonamide] | 210 to 990 nM
11 | N=C(c1cccc(NC(=O)Nc2ccc(S(=O)(=O)c3ccc([N+](=O)[O-])cc3)cc2)c1)N1CCCC1 [Compound 7, 1-(3-(imino(pyrrolidin-1-yl)methyl)phenyl)-3-(4-(4-nitrophenylsulfonyl)phenyl)urea] | 20 to 200 nM
12 | CCCCC(=O)N1CCN(C(=N)c2cccc(NC(=O)Nc3ccc(S(=O)(=O)NCc4ccc(S(N)(=O)=O)cc4)cc3)c2)CC1 [Compound 59, 4-(3-(3-(imino(4-pentanoylpiperazin-1-yl)methyl)phenyl)ureido)-N-(4-sulfamoylbenzyl)benzenesulfonamide] | 20 to 200 nM
13 | CCCCCN1CCN(C(=N)c2cccc(NC(=O)Nc3ccc(S(=O)(=O)NCc4ccc(S(N)(=O)=O)cc4)cc3)c2)CC1 [Compound 55, 4-(3-(3-(imino(4-pentylpiperazin-1-yl)methyl)phenyl)ureido)-N-(4-sulfamoylbenzyl)benzenesulfonamide] | < 20 nM
14 | CCCCN1CCN(C(=N)c2cccc(NC(=O)Nc3ccc(S(=O)(=O)N(CCO)CCO)cc3)c2)CC1 [Compound 20, 4-(3-(3-((4-butylpiperazin-1-yl)(imino)methyl)phenyl)ureido)-N,N-bis(2-hydroxyethyl)benzenesulfonamide] | ≥ 1000 nM
15 | N=C(c1cccc(NC(=O)Nc2ccc(S(=O)(=O)c3ccc([N+](=O)[O-])cc3)cc2)c1)N1CCOCC1 [Compound 6, 1-(3-(imino(morpholino)methyl)phenyl)-3-(4-(4-nitrophenylsulfonyl)phenyl)urea] | 20 to 200 nM
16 | N=C(c1cccc(NC(=O)Nc2ccc(S(=O)(=O)NCc3ccc(S(N)(=O)=O)cc3)cc2)c1)N1CCCC1 [Compound 46, 4-(3-(3-(imino(pyrrolidin-1-yl)methyl)phenyl)ureido)-N-(4-sulfamoylbenzyl)benzenesulfonamide] | 20 to 200 nM
17 | N=C(c1cccc(NC(=O)Nc2ccc(S(=O)(=O)c3ccc(Cl)cc3)cc2)c1)N1CCC(O)CC1 [Compound 11, 1-(4-(4-chlorophenylsulfonyl)phenyl)-3-(3-((4-hydroxypiperidin-1-yl)(imino)methyl)phenyl)urea] | 20 to 200 nM
18 | CCCCN1CCN(C(=N)c2cccc(NC(=O)Nc3ccc(S(=O)(=O)NCc4c(F)ccc(F)c4F)cc3)c2)CC1 [Compound 35, 4-(3-(3-((4-butylpiperazin-1-yl)(imino)methyl)phenyl)ureido)-N-(2,3,6-trifluorobenzyl)benzenesulfonamide] | 210 to 990 nM
19 | CCCCN1CCN(C(=N)c2cccc(NC(=O)Nc3ccc(S(=O)(=O)c4ccc(Br)cc4)cc3)c2)CC1 [Compound 4, 1-(4-(4-bromophenylsulfonyl)phenyl)-3-(3-((4-butylpiperazin-1-yl)(imino)methyl)phenyl)urea] | 210 to 990 nM
20 | CCN(CC)CCN(C)C(=N)c1cccc(NC(=O)Nc2ccc(S(=O)(=O)NCc3ccc(S(N)(=O)=O)cc3)cc2)c1 [Compound 47, N-(2-(diethylamino)ethyl)-N-methyl-3-(3-(4-(N-(4-sulfamoylbenzyl)sulfamoyl)phenyl)ureido)benzimidamide] | 20 to 200 nM
21 | N=C(c1cccc(NC(=O)Nc2ccc(S(=O)(=O)NCc3ccc(S(N)(=O)=O)cc3)cc2)c1)N1CCC(=O)CC1 [Compound 27, 4-(3-(3-(imino(4-oxopiperidin-1-yl)methyl)phenyl)ureido)-N-(4-sulfamoylbenzyl)benzenesulfonamide] | 210 to 990 nM
22 | COCCN(CCOC)C(=N)c1cccc(NC(=O)Nc2ccc(S(=O)(=O)NCc3ccc(S(N)(=O)=O)cc3)cc2)c1 [Compound 32, N,N-bis(2-methoxyethyl)-3-(3-(4-(N-(4-sulfamoylbenzyl)sulfamoyl)phenyl)ureido)benzimidamide] | 210 to 990 nM
23 | N=C(c1cccc(NC(=O)Nc2ccc(S(N)(=O)=O)cc2)c1)N1CCNCC1 [Compound 3, 4-(3-(3-(imino(piperazin-1-yl)methyl)phenyl)ureido)benzenesulfonamide] | ≥ 1000 nM
24 | CCCCN1CCN(C(=N)c2ccc(NC(=O)Nc3ccc(S(=O)(=O)NCc4ccc(S(N)(=O)=O)cc4)cc3)cc2)CC1 [Compound 71, 4-(3-(4-((4-butylpiperazin-1-yl)(imino)methyl)phenyl)ureido)-N-(4-sulfamoylbenzyl)benzene sulfonamide] | 20 to 200 nM
